In patent US20110166123A1, “NOVEL COMPOSITIONS AND METHODS OF USE” (priority 2008, published 2011) one finds EC50 data, which are given here for 38 compounds.

The structures appear in SMILES notation.

In the first assay the test system is human immunodeficiency virus type 1 (HIV-1). In words: microbe, parasite or virus in culture. Format: cell-based. The note with it: Human immunodeficiency virus 1, HeLa, 48 h, HIV-1 luciferase reporter, HeLa cells, 48 hours after infection. On the technique in general: In a reporter assay the amount or activity of a reporter protein is the signal.
A word on the EC50: it is the midpoint of the concentration-response curve. The compound `COCCN1CCN(c2nc3c(cc2Cc2cccc(Cl)c2F)c(=O)c(C(=O)O)cn3[C@H](CO)C(C)(C)C)CC1` [Example 2AA] registered an EC50 of 0.01 to 0.1 µM.
Still for that read-out and setting: next, `COc1nc2c(cc1NCc1ccc(Cl)cc1)c(=O)c(C(=O)O)cn2[C@H](CO)C(C)C` [Example 20J, (S)-6-(4-chlorobenzylamino)-1-(1-hydroxy-3-methylbutan-2-yl)-7-methoxy-4-oxo-1,4-dihydro-1,8-naphthyridine-3-carboxylic acid]: greater than 0.1 µM; `CCCn1cc(C(=O)O)c(=O)c2c(N)nc(SC)nc21` [Example 7B]: greater than 0.1 µM.
`COc1nc2c(cc1-c1ccc(F)c(Cl)c1)c(=O)c(C(=O)O)cn2[C@H](CO)C(C)C` [Example 17D] yielded an EC50 greater than 0.1 µM.
On the same count and under the same terms, next, `COc1nc2c(cc1-c1ccncc1)c(=O)c(C(=O)O)cn2[C@H](CO)C(C)C` [Example 17G]: greater than 0.1 µM.
`COc1nc2c(cc1NCc1cc(F)c(F)cc1F)c(=O)c(C(=O)O)cn2[C@H](CO)C(C)C` [Example 20II, (S)-1-(1-hydroxy-3-methylbutan-2-yl)-7-methoxy-4-oxo-6-(2,4,5-trifluorobenzylamino)-1,4-dihydro-1,8-naphthyridine-3-carboxylic acid] had an EC50 greater than 0.1 µM.
Same read-out and setting: next, `COc1cc2c(cc1CCc1ccc(F)cc1F)c(=O)c(C(=O)O)cn2[C@H](CO)C(C)(C)C` [Example 18A, 6-[2-(2,4-Difluoro-phenyl)-ethyl]-1-((S)-1-hydroxymethyl-2,2-dimethyl-propyl)-7-methoxy-4-oxo-1,4-dihydro-quinoline-3-carboxylic acid]: greater than 0.1 µM; `COc1nc2c(cc1Cc1ccc(F)c(F)c1)c(=O)c(C(=O)O)cn2[C@H](CO)C(C)C` [Example 1B]: greater than 0.1 µM; `CC(C)(C)[C@@H](CO)n1cc(C(=O)O)c(=O)c2cc(Cc3cccc(Cl)c3F)c(N3CCC(CO)CC3)nc21` [Example 2Y]: 0.01 to 0.1 µM.
`COc1nc2c(cc1Nc1ccc(F)c(Cl)c1)c(=O)c(C(=O)O)cn2[C@H](CO)C(C)C` [Example 20RR, (S)-6-(3-chloro-4-fluorophenylamino)-1-(1-hydroxy-3-methylbutan-2-yl)-7-methoxy-4-oxo-1,4-dihydro-1,8-naphthyridine-3-carboxylic acid]: the EC50 was greater than 0.1 µM.
Same read-out and setting: next, `COc1nc2c(cc1NCc1ccc(Cl)c(F)c1)c(=O)c(C(=O)O)cn2[C@H](CO)C(C)C` [Example 20H, (S)-6-(4-chloro-3-fluorobenzylamino)-1-(1-hydroxy-3-methylbutan-2-yl)-7-methoxy-4-oxo-1,4-dihydro-1,8-naphthyridine-3-carboxylic acid]: greater than 0.1 µM; `COc1nc2c(cc1NCc1cccc(Cl)c1F)c(=O)c(C(=O)O)cn2[C@H](CO)C(C)C` [Example 20B, (S)-6-(3-chloro-2-fluorobenzylamino)-1-(1-hydroxy-3-methylbutan-2-yl)-7-methoxy-4-oxo-1,4-dihydro-1,8-naphthyridine-3-carboxylic acid]: greater than 0.1 µM.
The same measure, in the same setting: next, `COc1cc2c(cc1NCc1c(F)cccc1F)c(=O)c(C(=O)O)cn2[C@H](CO)C(C)C` [Example 21C, (S)-6-(2,6-difluorobenzylamino)-1-(1-hydroxy-3-methylbutan-2-yl)-7-methoxy-4-oxo-1,4-dihydroquinoline-3-carboxylic acid]: 0.01 to 0.1 µM; `COc1nc2c(cc1Cc1cccc(Cl)c1F)c(=O)c(C(=O)O)cn2C(CO)CO` [Example 1M]: greater than 0.1 µM.
On the same count and under the same terms, under `COc1nc2c(cc1NCc1ccc(F)cc1F)c(=O)c(C(=O)O)cn2[C@H](CO)C(C)C` [Example 20R, (S)-6-(2,4-difluorobenzylamino)-1-(1-hydroxy-3-methylbutan-2-yl)-7-methoxy-4-oxo-1,4-dihydro-1,8-naphthyridine-3-carboxylic acid] stands 0.01 to 0.1 µM; under `O=C(O)c1c[nH]c2cnc(Cc3cccc(Cl)c3)nc2c1=O` [Example 10A, 2-(3-chlorobenzyl)-8-oxo-5,8-dihydropyrido[3,2-d]pyrimidine-7-carboxylic acid], greater than 0.1 µM.
In the case of `COc1nc2c(cc1CNc1c(F)cc(F)cc1F)c(=O)c(C(=O)O)cn2[C@H](CO)C(C)C` [Example 12A, (S)-1-(1-hydroxy-3-methylbutan-2-yl)-7-methoxy-4-oxo-6-((2,4,6-trifluorophenylamino)methyl)-1,4-dihydro-1,8-naphthyridine-3-carboxylic acid], the EC50 was greater than 0.1 µM.
The same measure, in the same setting: next, `COc1nc2c(cc1COc1c(F)cc(F)cc1F)c(=O)c(C(=O)O)cn2[C@H](CO)C(C)C` [Example 14A, (S)-1-(1-hydroxy-3-methylbutan-2-yl)-7-methoxy-4-oxo-6-((2,4,6-trifluorophenoxy)methyl)-1,4-dihydro-1,8-naphthyridine-3-carboxylic acid]: greater than 0.1 µM; `CC(C)[C@@H](CO)n1cc(C(=O)O)c(=O)c2cc(Nc3cccc(Cl)c3F)ncc21` [Example 16A, (S)-6-(3-chloro-2-fluorophenylamino)-1-(1-hydroxy-3-methylbutan-2-yl)-4-oxo-1,4-dihydro-1,7-naphthyridine-3-carboxylic acid]: greater than 0.1 µM.
With `COc1nc2c(cc1-c1ccc(F)cc1F)c(=O)c(C(=O)O)cn2[C@H](CO)C(C)C` [Example 17E], the half-maximal effective concentration (EC50) was greater than 0.1 µM.
Same read-out and setting: next, `COc1nc2c(cc1NCc1ccc(F)c(F)c1)c(=O)c(C(=O)O)cn2[C@H](CO)C(C)C` [Example 20N, (S)-6-(3,4-difluorobenzylamino)-1-(1-hydroxy-3-methylbutan-2-yl)-7-methoxy-4-oxo-1,4-dihydro-1,8-naphthyridine-3-carboxylic acid]: greater than 0.1 µM.
Take `COc1nc2c(cc1-c1ccccc1OCc1ccccc1)c(=O)c(C(=O)O)cn2[C@H](CO)C(C)C` [Example 17K]: the EC50 is greater than 0.1 µM.
The compound `CC(C)(C)[C@@H](CO)n1cc(C(=O)O)c(=O)c2cc(Cc3cccc(Cl)c3F)c(NCCCN3CCOCC3)nc21` [Example 2DD] yielded an EC50 of less than 0.01 µM.
Still for that read-out and setting: next, `CC(C)[C@@H](CO)n1cc(C(=O)O)c(=O)c2cc(Cc3ccccc3F)cnc21` [Example 4B]: greater than 0.1 µM; `COc1cc2c(cc1Oc1ccc(C(F)(F)F)cc1N)c(=O)c(C(=O)O)cn2[C@H](CO)C(C)(C)C` [Example 29G]: greater than 0.1 µM; `COc1nc2c(cc1NCCc1ccccc1F)c(=O)c(C(=O)O)cn2[C@H](CO)C(C)C` [Example 20S, (S)-6-(2-fluorophenethylamino)-1-(1-hydroxy-3-methylbutan-2-yl)-7-methoxy-4-oxo-1,4-dihydro-1,8-naphthyridine-3-carboxylic acid]: greater than 0.1 µM.
Same read-out and setting: under `CC(C)(C)[C@@H](CO)n1cc(C(=O)NCCCn2ccnc2)c(=O)c2cc(Cc3cccc(Cl)c3F)c(NCCCn3ccnc3)nc21` [Example 2HH] stands greater than 0.1 µM; under `COc1nc2c(cc1NCc1cccc(Cl)c1)c(=O)c(C(=O)O)cn2[C@H](CO)C(C)C` [Example 20I, (S)-6-(3-chlorobenzylamino)-1-(1-hydroxy-3-methylbutan-2-yl)-7-methoxy-4-oxo-1,4-dihydro-1,8-naphthyridine-3-carboxylic acid], greater than 0.1 µM; under `COc1nc2c(cc1N[C@H](C)c1ccc(F)cc1)c(=O)c(C(=O)O)cn2[C@H](CO)C(C)C` [Example 20LL, 6-((R)-1-(4-fluorophenyl)ethylamino)-1-((S)-1-hydroxy-3-methylbutan-2-yl)-7-methoxy-4-oxo-1,4-dihydro-1,8-naphthyridine-3-carboxylic acid], greater than 0.1 µM.
Still for that read-out and setting: next, `CC(C)[C@@H](CO)n1cc(C(=O)O)c(=O)c2cc(NCc3ccc(F)cc3)ccc21` [Example 22A, (S)-6-(4-fluorobenzylamino)-1-(1-hydroxy-3-methylbutan-2-yl)-4-oxo-1,4-dihydroquinoline-3-carboxylic acid]: greater than 0.1 µM; `Cc1cc2c(cc1NCc1c(F)cc(F)cc1F)c(=O)c(C(=O)O)cn2[C@H](CO)C(C)(C)C` [Example 25D, (S)-1-(1-hydroxy-3,3-dimethylbutan-2-yl)-7-methyl-4-oxo-6-(2,4,6-trifluorobenzylamino)-1,4-dihydroquinoline-3-carboxylic acid]: less than 0.01 µM.
Take `COc1cc2c(cc1OCc1ccccc1C(F)(F)F)c(=O)c(C(=O)O)cn2[C@H](CO)C(C)(C)C` [Example 29C, (S)-1-(1-hydroxy-3,3-dimethylbutan-2-yl)-7-methoxy-4-oxo-6-(2-(trifluoromethyl)benzyloxy)-1,4-dihydroquinoline-3-carboxylic acid]: the EC50 was greater than 0.1 µM.
On the same count and under the same terms, under `COc1cc2c(cc1OCc1c(F)cc(F)cc1F)c(=O)c(C(=O)O)cn2[C@H](CO)C(C)(C)C` [Example 29B, (S)-1-(1-hydroxy-3,3-dimethylbutan-2-yl)-7-methoxy-4-oxo-6-(2,4,6-trifluorobenzyloxy)-1,4-dihydroquinoline-3-carboxylic acid] stands 0.01 to 0.1 µM; under `CC(C)(C)[C@@H](CO)n1cc(C(=O)O)c(=O)c2cc(Cc3cccc(Cl)c3F)c(NCc3ccccn3)nc21` [Example 2FF], less than 0.01 µM.
On the same count and under the same terms, under `COc1nc2c(cc1NCc1cccc(Cl)c1Cl)c(=O)c(C(=O)O)cn2[C@H](CO)C(C)C` [Example 20L, (S)-6-(2,3-dichlorobenzylamino)-1-(1-hydroxy-3-methylbutan-2-yl)-7-methoxy-4-oxo-1,4-dihydro-1,8-naphthyridine-3-carboxylic acid] stands greater than 0.1 µM; under `COCCOc1cc2c(cc1NCc1ccc(F)cc1)c(=O)c(C(=O)O)cn2[C@H](CO)C(C)(C)C` [Example 27C, (S)-6-(4-fluorobenzylamino)-1-(1-hydroxy-3,3-dimethylbutan-2-yl)-7-(2-methoxyethoxy)-4-oxo-1,4-dihydroquinoline-3-carboxylic acid], 0.01 to 0.1 µM; under `COc1nc2c(cc1COc1ccc(F)cc1F)c(=O)c(C(=O)O)cn2[C@H](CO)C(C)C` [Example 14B], greater than 0.1 µM.
On to `COCCCCOc1nc2c(cc1Cc1cccc(Cl)c1F)c(=O)c(C(=O)O)cn2[C@H](CO)C(C)(C)C` [Example 2J], for which the concentration for a half-maximal effect (EC50) was in the range of 0.01 to 0.1 µM.

The assay is the same for the next values; noted with them: Human immunodeficiency virus 1, HeLa, HIV-1 luciferase reporter, HeLa cells.
`COc1nc2c(cc1COc1c(F)cc(F)cc1F)c(=O)c(C(=O)O)cn2[C@H](CO)C(C)C` [Example 14A, (S)-1-(1-hydroxy-3-methylbutan-2-yl)-7-methoxy-4-oxo-6-((2,4,6-trifluorophenoxy)methyl)-1,4-dihydro-1,8-naphthyridine-3-carboxylic acid] had a half-maximal effective concentration (EC50) greater than 2.5 µM.
The same measure, in the same setting: under `COc1nc2c(cc1COc1ccc(F)cc1F)c(=O)c(C(=O)O)cn2[C@H](CO)C(C)C` [Example 14B] stands greater than 2.5 µM.

Still in this assay, the particulars now being: Human immunodeficiency virus 1, read-out: Rank, rank of EC50, HIV-1 luciferase reporter.
As to `COc1nc2c(cc1COc1c(F)cc(F)cc1F)c(=O)c(C(=O)O)cn2[C@H](CO)C(C)C` [Example 14A, (S)-1-(1-hydroxy-3-methylbutan-2-yl)-7-methoxy-4-oxo-6-((2,4,6-trifluorophenoxy)methyl)-1,4-dihydro-1,8-naphthyridine-3-carboxylic acid], the concentration for a half-maximal effect (EC50) was greater than 0.1 µM.
Still for that read-out and setting: next, `COc1nc2c(cc1COc1ccc(F)cc1F)c(=O)c(C(=O)O)cn2[C@H](CO)C(C)C` [Example 14B]: greater than 0.1 µM.
